The text below walks through data of ChEMBL document CHEMBL5143616, “Novel biphenyl-based scaffold as potent and selective histone deacetylase 6 (HDAC6) inhibitors: Identification, development and pharmacological evaluation” (Eur J Med Chem, 2022).

For data set [1], the target named is T1, Protein deacetylase HDAC6 (Mus musculus) (UniProt Q9Z2V5).
T1 sequence (whole entry): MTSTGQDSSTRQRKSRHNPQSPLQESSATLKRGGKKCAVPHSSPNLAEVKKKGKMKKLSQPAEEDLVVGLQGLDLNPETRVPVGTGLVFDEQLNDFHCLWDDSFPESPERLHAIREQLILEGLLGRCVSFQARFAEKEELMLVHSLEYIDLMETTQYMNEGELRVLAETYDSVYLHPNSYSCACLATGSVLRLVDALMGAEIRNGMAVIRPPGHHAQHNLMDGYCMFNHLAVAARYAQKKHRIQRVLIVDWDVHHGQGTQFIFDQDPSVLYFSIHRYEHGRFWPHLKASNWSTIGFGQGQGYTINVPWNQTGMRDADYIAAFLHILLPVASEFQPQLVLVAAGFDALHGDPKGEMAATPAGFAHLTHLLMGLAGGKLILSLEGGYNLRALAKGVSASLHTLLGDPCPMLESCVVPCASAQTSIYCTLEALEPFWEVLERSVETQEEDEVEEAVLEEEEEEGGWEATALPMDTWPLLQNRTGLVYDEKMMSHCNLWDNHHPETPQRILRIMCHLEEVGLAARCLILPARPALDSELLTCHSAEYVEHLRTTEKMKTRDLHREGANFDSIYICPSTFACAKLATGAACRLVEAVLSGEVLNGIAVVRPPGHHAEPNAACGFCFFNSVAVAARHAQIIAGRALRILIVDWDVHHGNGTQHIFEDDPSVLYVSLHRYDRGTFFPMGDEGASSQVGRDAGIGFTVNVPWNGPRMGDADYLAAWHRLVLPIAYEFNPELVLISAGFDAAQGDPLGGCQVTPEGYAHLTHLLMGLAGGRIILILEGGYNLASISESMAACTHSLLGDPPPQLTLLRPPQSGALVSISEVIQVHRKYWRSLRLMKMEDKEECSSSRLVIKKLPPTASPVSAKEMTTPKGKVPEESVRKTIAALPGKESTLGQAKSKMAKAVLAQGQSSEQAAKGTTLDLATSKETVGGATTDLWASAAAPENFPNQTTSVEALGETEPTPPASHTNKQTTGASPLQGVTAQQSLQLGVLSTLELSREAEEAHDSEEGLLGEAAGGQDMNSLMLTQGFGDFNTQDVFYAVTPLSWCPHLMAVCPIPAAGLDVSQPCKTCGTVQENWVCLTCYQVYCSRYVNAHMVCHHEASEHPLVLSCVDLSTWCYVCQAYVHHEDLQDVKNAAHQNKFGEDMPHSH
As to the kind of experiment: Inhibition of HDAC6 in mouse B16 cells assessed as accumulation of acetylated alpha-tubulin level after 24 hrs by Western blotting analysis. In kind it is cell-based.

In data set [2] the test system is CT26. Nature of the data set: Antitumor immunity in C57BL/6 mouse xenografted with mouse CT26 cells assessed as increase in CD3+ CD8+ cytotoxic T cells at 100 mg/kg, po administered once daily for 21 days measured by flow cytometry analysis. In kind it is functional. Particulars: time 21 day.
Data set [3] concerns CT26. As to the kind of experiment: Antitumor immunity in C57BL/6 mouse xenografted with mouse CT26 cells assessed as decrease in number of CD8+IFNgamma+ T cells at 100 mg/kg, po administered once daily for 21 days measured by flow cytometry analysis. Particulars: time 21 day. In kind it is functional. The arrangement: scale not given: the % may be the effect or the level left.

The nature of data set [4]: Stability in human liver microsomes assessed as half-life and measured by LC-MS/MS analysis. The format is ADME, Microsome.
A further data set has as its system B16. As to the kind of experiment: Antiproliferative activity against mouse B16 cells after 72 hrs by MTT assay. In kind it is functional, cell-based. Particulars: B16, 72 h.
Data set [5] relates to CT26. As to the kind of experiment: Induction of apoptosis in mouse CT26 cells assessed as apoptotic cells at 6 uM measured by Annexin V-FITC/PI staining based flow cytometry method. The format is functional.
Data set [6] has as its system CT26. Nature of the data set: Antitumor immunity in C57BL/6 mouse xenografted with mouse CT26 cells assessed as decrease in number of CD4+CD25+ CD127- T regulatory cells at 100 mg/kg, po administered once daily for 21 days measured by flow cytometry analysis. Details: scale not given: the % may be the effect or the level left. In kind it is functional. Particulars: time 21 day.

Data set [7] in a line: Stability in human plasma incubated for 6 hrs in presence of NADPH and measured by LC-MS/MS analysis. Particulars: read-out: Stability. The format is ADME, cell-free.
Data set [8] can be described thus: Stability in mouse liver microsomes assessed as half-life and measured by LC-MS/MS analysis. The format is ADME, Microsome.
A short description of data set [9]: Stability in mouse plasma incubated for 6 hrs in presence of NADPH and measured by LC-MS/MS analysis. The format is ADME, cell-free. Particulars: read-out: Stability.
Data set [10] concerns CT26. As to the kind of experiment: Antitumor immunity in C57BL/6 mouse xenografted with mouse CT26 cells assessed as increase in CD3+ cytotoxic T cells at 50 mg/kg, po administered once daily for 21 days measured by flow cytometry analysis. The format is functional. Particulars: time 21 day.
Data set [11] in a line: Stability in mouse liver microsomes assessed as clearance and measured by LC-MS/MS analysis. Particulars: read-out: CLH. In kind it is ADME, Microsome.
The nature of data set [12]: Stability in human liver microsomes assessed as clearance and measured by LC-MS/MS analysis. Particulars: read-out: CLH. In kind it is ADME, Microsome.
For data set [13], the target named is T1, Protein deacetylase HDAC6 (Mus musculus). As to the kind of experiment: Inhibition of HDAC6 in mouse B16 cells assessed as accumulation of acetylated alpha-tubulin level at 6 uM after 2 to 12 hrs by Western blotting analysis. The format is cell-based. Particulars: time 2-12 hrs, TDE = time-dependent effect.
The next data set has as its target Histone deacetylase 2 (Homo sapiens, UniProt Q92769).
For another data set, the target named is Histone deacetylase 3 (Homo sapiens, UniProt O15379). Nature of the data set: Inhibition of HDAC3 (unknown origin).
Chain of Histone deacetylase 3 (O15379 whole entry): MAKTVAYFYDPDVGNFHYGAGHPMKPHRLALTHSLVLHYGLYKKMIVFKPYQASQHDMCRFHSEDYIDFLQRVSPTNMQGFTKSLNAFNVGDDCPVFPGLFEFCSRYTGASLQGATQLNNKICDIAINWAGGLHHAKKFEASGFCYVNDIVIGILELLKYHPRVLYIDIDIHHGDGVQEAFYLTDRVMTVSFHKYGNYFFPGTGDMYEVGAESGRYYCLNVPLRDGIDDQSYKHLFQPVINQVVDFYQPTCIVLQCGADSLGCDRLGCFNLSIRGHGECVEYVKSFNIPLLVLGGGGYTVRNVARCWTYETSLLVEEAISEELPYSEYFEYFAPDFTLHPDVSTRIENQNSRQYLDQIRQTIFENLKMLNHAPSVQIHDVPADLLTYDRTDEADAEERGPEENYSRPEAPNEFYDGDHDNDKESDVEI
For data set [14], the target named is T1, Protein deacetylase HDAC6 (Mus musculus). Nature of the data set: Inhibition of HDAC6 in mouse CT26 cells assessed as accumulation of acetylated alpha-tubulin level at 2 to 6 uM after 24 hrs by Western blotting analysis. The format is cell-based. Particulars: dose 2-6 µM, DDE = dose-dependent effect.
The target of a further data set is T2, Histone deacetylase 8 (Homo sapiens, UniProt Q9BY41).
T2 sequence (Q9BY41 whole entry): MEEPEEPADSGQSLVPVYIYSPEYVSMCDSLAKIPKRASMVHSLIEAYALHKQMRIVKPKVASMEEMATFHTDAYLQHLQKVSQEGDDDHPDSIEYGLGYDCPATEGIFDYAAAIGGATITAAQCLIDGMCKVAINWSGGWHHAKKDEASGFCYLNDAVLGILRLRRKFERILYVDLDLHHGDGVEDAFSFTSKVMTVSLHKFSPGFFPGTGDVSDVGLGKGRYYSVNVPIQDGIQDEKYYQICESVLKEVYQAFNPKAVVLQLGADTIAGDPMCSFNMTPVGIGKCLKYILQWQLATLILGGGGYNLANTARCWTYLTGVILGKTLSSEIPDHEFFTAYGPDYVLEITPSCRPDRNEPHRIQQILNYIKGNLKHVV
As to the kind of experiment: Inhibition of HDAC8 (unknown origin) using Boc-Lys-(triflouroacetyl)-AMC as substrate incubated for 0.5 hr and measured after 20 mins by fluorescence assay.

The target in data set [15] is T1, Protein deacetylase HDAC6 (Mus musculus). Nature of the data set: Inhibition of HDAC6 in mouse CT26 cells assessed as accumulation of acetylated alpha-tubulin level at 6 uM after 2 to 24 hrs by Western blotting analysis. In kind it is cell-based. Particulars: time 2-24 hrs, TDE = time-dependent effect.
Data set [16] has the same target. As to the kind of experiment: Inhibition of HDAC6 in mouse B16 cells assessed as accumulation of acetylated alpha-tubulin level at 2 to 6 uM after 24 hrs by Western blotting analysis. Particulars: dose 2-6 µM, DDE = dose-dependent effect. In kind it is cell-based.

pIC50: −log10 of the molar value. Activity calls are given as the source filed them. The calls are words filed in the database; no cut-off is given here.

Chain of Histone deacetylase 2 (Q92769 whole entry): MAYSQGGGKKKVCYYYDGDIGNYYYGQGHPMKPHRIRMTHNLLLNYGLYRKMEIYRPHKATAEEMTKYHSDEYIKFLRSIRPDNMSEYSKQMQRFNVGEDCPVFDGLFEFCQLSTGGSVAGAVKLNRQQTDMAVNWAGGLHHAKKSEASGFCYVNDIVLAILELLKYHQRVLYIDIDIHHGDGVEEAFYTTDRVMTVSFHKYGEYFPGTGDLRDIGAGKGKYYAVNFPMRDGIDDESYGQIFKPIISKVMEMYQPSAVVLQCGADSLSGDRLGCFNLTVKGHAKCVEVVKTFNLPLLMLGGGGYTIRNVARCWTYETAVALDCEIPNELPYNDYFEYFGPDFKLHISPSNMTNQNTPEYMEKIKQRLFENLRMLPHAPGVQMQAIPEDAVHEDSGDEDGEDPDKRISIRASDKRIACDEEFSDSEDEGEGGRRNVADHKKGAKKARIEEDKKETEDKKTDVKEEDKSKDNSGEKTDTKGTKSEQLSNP
Description for Histone deacetylase 2: Inhibition of HDAC2 (unknown origin) using Boc-Lys-(acetyl)-AMC as substrate incubated for 0.5 hr and measured after 20 mins by fluorescence assay

Consider `COc1cc(OCc2cccc(-c3ccc4c(c3)OCCO4)c2C)cc(OC)c1CNCCCCCC(=O)NO`, for which, in data set [1], the acetylated alpha-tubulin accumulation result was “Active”.
As to `O=C(CCCCCCC(=O)Nc1ccccc1)NO` [VORINOSTAT], the Activity in the data set on CT26 [2] stood at 32.56%; in the data set on CT26 [3], 21.12%; in the data set on CT26 [5], 26%; with CT26 [6], 27.99%; in the data set with CT26 [10], 57.83%. Also, the half-life in [4] came to 259 min. This compound also gave a pIC50 in the data set on B16 of 5.65. For the same compound, the remaining at 6 h in data set [7] was determined as 77%; in data set [9], 20%. Further, in [8] (microsomes), the t1/2 worked out at 693 min. Besides, the microsomal CLint came to 2.04 µL/min/mg in data set [11] and 4.02 µL/min/mg in [12].
Regarding `COc1cc(OCc2cccc(-c3ccccc3)c2C)cc(OC)c1CNCCCCCCC(=O)NO`, in data set [1], the acetylated alpha-tubulin accumulation result is “Active”. Moreover, the inhibition result in data set [13] was “Tde”; in data set [14], “Dde”; in [15] it was “Tde”; in [16], “Dde”. Moreover, the results for the pIC50 against Histone deacetylase 2, against Histone deacetylase 3 and against Histone deacetylase 8 were 6.76, 7.34 and 5.66, respectively. The half-life in [4] worked out at 102 min; in data set [8] (liver microsomes) it was 67.9 min. The remaining at 6 h in data set [7] was found to be 97%; in data set [9] it was 23%. For the same compound, the microsomal CLint in data set [11] was found to be 20.4 µL/min/mg; in data set [12], 34.1 µL/min/mg.
Regarding `COc1cc(OCc2cccc(-c3ccccc3)c2C)cc(OC)c1CNCCCCCC(=O)NO`, the acetylated alpha-tubulin accumulation entry in data set [1] was “Active”.
Still for that read-out and setting: then `Cc1c(COc2ccc(CNCCCCCCC(=O)NO)c(OCc3cccc(C#N)c3)c2)cccc1-c1ccccc1`, with “Active”.
